From PubChem BioAssay AID2060327 (Molecular Pharmacology Branch, DTP, NCI, 2025)
Several values for one entry are separate records, joined by “and”; a condition that tells them apart may be missing. Identical values can stand only once.

Tested on: PC-3 multi-cell spheroids, viability
Experiment: Anticancer human tumor PC-3 cell line growth inhibition [IpAb];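 note: spheroids exposed to compounds for 7 days before readout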;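 for viability, T/C: 100% = DMSO vehicle control wells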
Settings: for viability, T/C: stronger effect = lower value
Source text: Combinatorial screen of targeted agents with ipatasertib and abemaciclib in multi-cell type tumor spheroids
A high-throughput screen of multi-cell type tumor spheroids was designed to identify active combinations of targeted small molecules and ipatasertib or abemaciclib. Complex spheroids include a stromal component modeled by human endothelial cells (HUVEC) and fibroblasts modeled by human mesenchymal stem cells (MSCs). The concentration ranges selected for each drug and investigational agent were based upon clinically achievable concentrations if the clinical Cmax of the agent was known.
Compounds. The drugs and investigational agents: ipatasertib (NSC767898), abemaciclib(NSC768073), selumetinib (NSC741078), trametinib (758246), adavosertib (NSC754352), everolimus (NSC733504), sapanisertib (NSC764658), vemurafenib (NSC761431), venetoclax (NSC766270), copanlisib (NSC809693), apelisib (NSC765974), palbociblib (NSC758247), vemurafenib (NSC761431), dabrafenib (NSC764134), ravoxertinib (NSC781343), BMS-387032 (NSC767048), sotorasib (NSC818433), talazoparib (NSC767125) and afursertib (NSC778305), were obtained from the National Cancer Institute (NCI) Developmental Therapeutics Program Chemical Repository. The FDA-approved anticancer drug set is available from the NCI Developmental Therapeutics Program. […] The stock solutions were prepared in dimethyl sulfoxide (DMSO, Sigma-Aldrich, St. Louis, MO, cat. D2650) at 800-fold the tested concentration and stored at -70 degrees C prior to their use. All drugs and investigational agents were tested over a range starting from a high concentration at or near the clinical Cmax and decreasing in half-log increments. If the clinical Cmax for an agent had not been determined, the highest concentration tested was 10 microM.
NCI60 Cell Culture. NCI60 cell lines were obtained from the NCI Developmental Therapeutics Program Tumor Repository. For each lot of cells, the Repository performed Applied Biosystems AmpFLSTR Identifiler testing with PCR amplification to confirm consistency with the published Identifier STR profile for each cell line. Cells were kept in continuous culture for no more than 20 passages. The optimal seeding densities for each of the cell lines at each time point assessed were determined prior to performing the concentration response studies. Briefly, the NCI60 human tumor lines were grown as monolayers in RPMI 1640 medium supplemented with 10% FBS and 2 mmol/L L-glutamine.
An additional 9 lines were from the NCI60 cell line panel including MDA-MB-231 breast carcinoma, MDA-MB-468 breast carcinoma, MCF7 breast carcinoma, Hs578T breast carcinoma, MALME-3M melanoma, SK-MEL-2 melanoma, SK-OV-3 ovarian carcinoma, DU-145 prostate carcinoma, PC-3 prostate carcinoma, all cell lines along with major genetic alterations are listed on Table 2. Pooled donor human umbilical vein endothelial cells (HUVEC, Lonza, cat. CC-2519) and human mesenchymal stem cells (hMSC, Lonza, cat. PT-2501) were purchased from Lonza (Walkersville, MD).
PDMR cell lines were grown in complete medium (DC medium): Dulbecco's modified Eagle's medium (DMEM)/F12 supplemented with 5% fetal bovine serum (FBS), 2 mM L-glutamine, 100 U/mL penicillin and 100 µg/ml streptomycin, 0.4 µg/ml hydrocortisone, 10 ng/ml epidermal growth factor (EGF) recombinant human protein, 24 µg/mL adenine, and 0.1 mg/mL primocin. During culture from frozen stock vials, PDMR cells were cultured in the same medium containing 10 µM Y-27632 (see Table 3). The PDCs were cultured in complete DMEM/F12 media without 10 microM Y-27632 dihydrochloride for at least two passages prior to the screen. The pooled donor HUVEC and hMSC were cultured in endothelial cell growth medium 2 (PromoCell, Heidelberg, Germany, cat. C-22011) and mesenchymal stem cell growth medium 2 (PromoCell, cat. C-28009), respectively. For all experiments, HUVEC and hMSC were used at passages </=5.
[…]

[1] = curve of first compound, second compound 0.01 µM
[2] = curve of first compound, second compound 0.0316 µM
[3] = curve of first compound, second compound 0.1 µM
[4] = curve of first compound, second compound 0.316 µM
[5] = curve of first compound, second compound 1 µM
[6] = second compound 0.01 µM, first compound 0.0316 µM
[7] = second compound 0.01 µM, first compound 0.1 µM
[8] = second compound 0.01 µM, first compound 0.316 µM
[9] = second compound 0.01 µM, first compound 1 µM
[10] = second compound 0.01 µM, first compound 3.16 µM
[11] = second compound 0.01 µM, first compound 10 µM
[12] = second compound 0.0316 µM, first compound 0.0316 µM
[13] = second compound 0.0316 µM, first compound 0.1 µM
[14] = second compound 0.0316 µM, first compound 0.316 µM
[15] = second compound 0.0316 µM, first compound 1 µM
[16] = second compound 0.0316 µM, first compound 3.16 µM
[17] = second compound 0.0316 µM, first compound 10 µM
[18] = second compound 0.1 µM, first compound 0.0316 µM
[19] = second compound 0.1 µM, first compound 0.1 µM
[20] = second compound 0.1 µM, first compound 0.316 µM
[21] = second compound 0.1 µM, first compound 1 µM
[22] = second compound 0.1 µM, first compound 3.16 µM
[23] = second compound 0.1 µM, first compound 10 µM
[24] = second compound 0.316 µM, first compound 0.0316 µM
[25] = second compound 0.316 µM, first compound 0.1 µM
[26] = second compound 0.316 µM, first compound 0.316 µM
[27] = second compound 0.316 µM, first compound 1 µM
[28] = second compound 0.316 µM, first compound 3.16 µM
[29] = second compound 0.316 µM, first compound 10 µM
[30] = second compound 1 µM, first compound 0.0316 µM
[31] = second compound 1 µM, first compound 0.1 µM
[32] = second compound 1 µM, first compound 0.316 µM
[33] = second compound 1 µM, first compound 1 µM
[34] = second compound 1 µM, first compound 3.16 µM
[35] = second compound 1 µM, first compound 10 µM

Structure (SMILES) | IC50 [1] [µM] | IC50 [2] [µM] | IC50 [3] [µM] | IC50 [4] [µM] | IC50 [5] [µM] | viability, T/C [6] [%] | viability, T/C [7] [%] | viability, T/C [8] [%] | viability, T/C [9] [%] | viability, T/C [10] [%] | viability, T/C [11] [%] | viability, T/C [12] [%] | viability, T/C [13] [%] | viability, T/C [14] [%] | viability, T/C [15] [%] | viability, T/C [16] [%] | viability, T/C [17] [%] | viability, T/C [18] [%] | viability, T/C [19] [%] | viability, T/C [20] [%] | other results
C=CCn1c(=O)c2cnc(Nc3ccc(N4CCN(C)CC4)cc3)nc2n1-c1cccc(C(C)(C)O)n1 + CCN1CCN(Cc2ccc(Nc3ncc(F)c(-c4cc(F)c5nc(C)n(C(C)C)c5c4)n3)nc2)CC1 | 0.515 | 0.29 | 0.446 | 0.45 | 0.29 | 66.6 | 76.6 | 53.7 | 42.5 | 22 | 27.1 | 67.4 | 54.7 | 51.9 | 39.6 | 24 | 26.4 | 59.9 | 51.2 | 52.6 | viability, T/C [21]: 41.4%; viability, T/C [22]: 24%; viability, T/C [23]: 24.5%; viability, T/C [24]: 59.6%; viability, T/C [25]: 56.3%; viability, T/C [26]: 52.2%; viability, T/C [27]: 43.2%; viability, T/C [28]: 26.3%; viability, T/C [29]: 24.9%; viability, T/C [30]: 55.7%; viability, T/C [31]: 53.3%; viability, T/C [32]: 51.1%; viability, T/C [33]: 38.7%; viability, T/C [34]: 31.6%; viability, T/C [35]: 25.1%
C=CCn1c(=O)c2cnc(Nc3ccc(N4CCN(C)CC4)cc3)nc2n1-c1cccc(C(C)(C)O)n1 | – | – | – | – | – | – | – | – | – | – | – | – | – | – | – | – | – | – | – | – | viability, T/C (compound 0.0316 µM): 102% and 104%; viability, T/C (compound 0.1 µM): 94% and 92.4%; viability, T/C (compound 0.316 µM): 68.1% and 67.3%; viability, T/C (compound 1 µM): 23.1% and 31.4%; viability, T/C (compound 3.16 µM): 26.6% and 22.3%; viability, T/C (compound 10 µM): 26.4% and 23.9%; IC50 (curve of compound): 0.515 µM and 0.548 µM
C=CC(=O)N1CCN(c2nc(=O)n(-c3c(C)ccnc3C(C)C)c3nc(-c4c(O)cccc4F)c(F)cc23)C(C)C1 (configuration not stated) + CCN1CCN(Cc2ccc(Nc3ncc(F)c(-c4cc(F)c5nc(C)n(C(C)C)c5c4)n3)nc2)CC1 | > 10 | > 10 | > 10 | > 10 | 5.26 | 84.3 | 96 | 98.6 | 101 | 114 | 116 | 51.8 | 57.3 | 69.8 | 79.2 | 107 | 78.5 | 58.1 | 60.2 | 60.4 | viability, T/C [21]: 54.7%; viability, T/C [22]: 64.2%; viability, T/C [23]: 74.8%; viability, T/C [24]: 65.2%; viability, T/C [25]: 67.8%; viability, T/C [26]: 68.4%; viability, T/C [27]: 70.6%; viability, T/C [28]: 61%; viability, T/C [29]: 48.2%; viability, T/C [30]: 56.3%; viability, T/C [31]: 65.5%; viability, T/C [32]: 60.5%; viability, T/C [33]: 59.1%; viability, T/C [34]: 60.3%; viability, T/C [35]: 37.5%
